Measured values reported in patent publication US10167300B2, “Metalloenzyme inhibitor compounds as fungicides” (priority 2014, dated 2019).
Where two headings read alike, the source gives them in different places.

Experiments:
Assay type in all cases: in vivo, Mycosphaerella graminicola on wheat plants (variety Yuma)
[1] = system: Mycosphaerella graminicola; Anamorph: Septoria tritici; Bayer Code SEPTTR (standard laboratory isolate, SI SEPTTR); assay: Type A (high volume) assay, leaf blotch of wheat, standard laboratory SEPTTR isolate (SI SEPTTR); conditions: Zymoseptoria tritici, 24 h, standard laboratory isolate; high volume; 50 ppm; 1 Day Protectant; wheat (Yuma); read-out: Disease Control, SI SEPTTR Type A Assay (50 ppm) 1 DP
Procedure, shortened: (§1)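 Wheat seedlings (Yuma, first leaf emerged) sprayed with acetone/Triton X-100 solutions (Type A) or 10% EC diluted in 0.1% Trycol at 200 L/ha (Type B), inoculated before or after spraying. Inoculated plants held 3 days at 20 °C, 100% RH, then greenhouse; % disease control from severity versus untreated plants.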

[2] = system: Mycosphaerella graminicola; Anamorph: Septoria tritici; Bayer Code SEPTTR (standard laboratory isolate, SI SEPTTR); assay: Type B (low volume, EC formulation, track sprayer 200 L/ha) assay, leaf blotch of wheat, standard laboratory SEPTTR isolate (SI SEPTTR); conditions: Zymoseptoria tritici, 72 h, standard laboratory isolate, low volume EC, 100 g/ha, wheat (Yuma)
Description: Example A: Evaluation of Fungicidal Activity: Leaf Blotch of Wheat (Mycosphaerella graminicola; Anamorph: Septoria tritici; Bayer Code SEPTTR)
For Type A assays, technical grades of the experimental fungicides in Table 4 below were dissolved in acetone, and then mixed with nine volumes of water containing 110 ppm Triton X-100. The fungicide solutions were applied onto wheat seedlings using an automated booth sprayer. For Type B assays, emulsifiable concentrate (EC) formulations of technical grades of the experimental fungicides in Table 4 below were prepared at 10% (w/v), and then mixed with 150 volumes of 0.1% Trycol 5941. These solutions were applied onto wheat seedlings using an automated track sprayer at 200 L/ha. All sprayed plants were allowed to air dry prior to further handling.
Wheat plants (variety Yuma) were grown from seed in a greenhouse in 50% mineral soil/50% soil-less Metro mix until the first leaf was fully emerged, with 7-10 seedlings per pot. Prior to or after application of experimental fungicides, plants were inoculated either with spores of a standard laboratory SEPTTR isolate (SI SEPTTR) or with spores from a SEPTTR field isolate collected from Wellsbourne, England in 2012 (FI SEPTTR). After inoculation the plants were kept for 3 days at 20° C. in 100% relative humidity (one day in a dark dew chamber followed by two days in a lighted dew chamber). Plants were then transferred to a 20° C. greenhouse for disease development. When disease symptoms were fully expressed on untreated plants, infection levels on treated plants were assessed on a scale of 0 to 100 percent disease severity. Percent disease control was calculated using the ratio of disease severity on treated plants relative to untreated plants.

[3] = Type B (low volume, EC formulation, track sprayer 200 L/ha) assay, leaf blotch of wheat, SEPTTR field isolate (FI SEPTTR); conditions: Zymoseptoria tritici, 72 h, field isolate, low volume EC, 100 g/ha, wheat (Yuma)
Procedure, shortened: as §1

[4] = 3 Day Curative, read-out: Disease Control, SI SEPTTR Type B Assay (100 g/ha) 3 DC
[5] = 3 Day Protectant, read-out: Disease Control, SI SEPTTR Type B Assay (100 g/ha) 3 DP
[6] = 3 Day Curative, read-out: Disease Control, FI SEPTTR Type B Assay (100 g/ha) 3 DC
[7] = 3 Day Protectant, read-out: Disease Control, FI SEPTTR Type B Assay (100 g/ha) 3 DP

| SMILES | pest or weed control at 50 ppm [1] | pest or weed control at 100 g/ha [2, 4] | pest or weed control at 100 g/ha [2, 5] | pest or weed control at 100 g/ha [3, 6] | pest or weed control at 100 g/ha [3, 7] |
| --- | --- | --- | --- | --- | --- |
| CC(C)(C)C(O)(c1cccnc1)c1ccc(-c2ccc(OC(F)F)cc2)cn1 (stereo not drawn) [Compound 82] | 80 to 100% | 80 to 100% | 80 to 100% | 80 to 100% | 80 to 100% |
| Cc1ncc(C(O)(c2ccc(-c3ccc(OC(F)(F)F)cc3)cn2)C(C)(C)C)cn1 (stereo not drawn) [Compound 83] | 40 to 59% | < 40% | 40 to 59% | 80 to 100% | 40 to 59% |
| CC(C)(C)C(O)(c1ccc(-c2ccc(OC(F)(F)F)cc2)cn1)c1cncs1 (stereo not drawn) [Compound 84] | 80 to 100% | 80 to 100% | 80 to 100% | 60 to 79% | 60 to 79% |
| CC(C)(C)C(O)(c1ccc(-c2ccc(OC(F)F)cc2)cn1)c1cncs1 (stereo not drawn) [Compound 86] | 60 to 79% | 80 to 100% | 80 to 100% | 80 to 100% | 80 to 100% |
| CC(C)(C)C(O)(c1cncnc1)c1ccc(-c2ccc(C#N)cc2)cn1 (stereo not drawn) [Compound 88] | 80 to 100% | 80 to 100% | 80 to 100% | 80 to 100% | 80 to 100% |
| OC(c1ccc(-c2ccc(OC(F)(F)F)cc2)cn1)(c1cncs1)C1CC1 (stereo not drawn) [Compound 89] | 80 to 100% | 80 to 100% | 80 to 100% | 40 to 59% | 60 to 79% |
| OC(Cc1ccc(Cl)cc1F)(c1cccnc1)c1ccc(-c2ccc(OC(F)(F)F)cc2)cn1 (stereo not drawn) [Compound 90] | 80 to 100% | 80 to 100% | 80 to 100% | 80 to 100% | 80 to 100% |
| OC(c1cccnc1)(c1ccc(-c2ccc(OC(F)(F)F)cc2)cn1)c1ccc(F)cc1F (stereo not drawn) [Compound 91] | 80 to 100% | 60 to 79% | 80 to 100% | 40 to 59% | 80 to 100% |
| CC(C)(C)C(O)(c1cccnc1)c1ccc(-c2ccc(OCC(F)(F)F)cc2)cn1 (stereo not drawn) [Compound 92] | 80 to 100% | 80 to 100% | 80 to 100% | 80 to 100% | 80 to 100% |
| CCC(C)(C)C(O)(c1cncnc1)c1ccc(-c2ccc(OC(F)(F)F)cc2)cn1 (stereo not drawn) [Compound 93, 2,2-dimethyl-1-pyrimidin-5-yl-1-[5-[4-(trifluoromethoxy)phenyl]-2-pyridyl]butan-1-ol] | 80 to 100% | 80 to 100% | 80 to 100% | 60 to 79% | 80 to 100% |
| COc1ccc(-c2ccc(C(O)(c3cncnc3)C(C)(C)C)nc2)cc1 (stereo not drawn) [Compound 95] | 80 to 100% | 80 to 100% | 80 to 100% | 80 to 100% | 80 to 100% |
| CC(C)(C)C(O)(c1cncnc1)c1ccc(-c2ccc(C(F)(F)F)cc2)cn1 (stereo not drawn) [Compound 96] | 80 to 100% | 80 to 100% | 80 to 100% | 80 to 100% | 80 to 100% |
| CC(C)(C)c1ccc(-c2ccc(C(O)(c3cncnc3)C(C)(C)C)nc2)cc1 (stereo not drawn) [Compound 97] | 80 to 100% | 80 to 100% | 80 to 100% | 80 to 100% | 80 to 100% |
| CSc1ccc(-c2ccc(C(O)(c3cncnc3)C(C)(C)C)nc2)cc1 (stereo not drawn) [Compound 98] | 80 to 100% | 80 to 100% | 80 to 100% | 80 to 100% | 80 to 100% |
| CC(=O)c1ccc(-c2ccc(C(O)(c3cncnc3)C(C)(C)C)nc2)cc1 (stereo not drawn) [Compound 101] | 80 to 100% | 80 to 100% | 80 to 100% | 80 to 100% | 80 to 100% |
| CC(C)(C)C(O)(c1cncnc1)c1ccc(-c2ccc(OC3CC3)cc2)cn1 (stereo not drawn) [Compound 102] | 80 to 100% | 80 to 100% | 80 to 100% | 80 to 100% | 80 to 100% |
| CC(C)(C)C(O)(c1cncnc1)c1ccc(-c2cccc(OC(F)(F)F)c2)cn1 (stereo not drawn) [Compound 103] | 80 to 100% | 60 to 79% | 80 to 100% | < 40% | 80 to 100% |
| CC(C)(C)C(O)(c1cncnc1)c1ccc(-c2ccccc2OC(F)(F)F)cn1 (stereo not drawn) [Compound 104] | 80 to 100% | 80 to 100% | 80 to 100% | < 40% | 80 to 100% |
| CC(C)(C)C(O)(c1cncnc1)c1ccc(-c2ccc(C3(C#N)CC3)cc2)cn1 (stereo not drawn) [Compound 105] | 80 to 100% | 80 to 100% | 80 to 100% | 80 to 100% | 80 to 100% |
| CC(C)(C)C(O)(c1cncnc1)c1ccc(-c2ccc(OC(F)(F)F)c(F)c2)cn1 (stereo not drawn) [Compound 106] | 80 to 100% | 80 to 100% | 80 to 100% | 80 to 100% | 80 to 100% |
| CC(C)(C)C(O)(c1cncnc1)c1ccc(-c2ccc(C(F)(F)F)nc2)cn1 (stereo not drawn) [Compound 107] | 80 to 100% | 80 to 100% | 60 to 79% | 80 to 100% | 60 to 79% |
| CC(C)(C)C(O)(c1cncnc1)c1ccc(-c2ccccc2)cn1 (stereo not drawn) [Compound 114] | 60 to 79% | 80 to 100% | 80 to 100% | 80 to 100% | 60 to 79% |
| CC(C)(C)C(O)(c1cncnc1)c1ccc(-c2ccc(F)cc2)cn1 (stereo not drawn) [Compound 115] | 80 to 100% | 80 to 100% | 80 to 100% | 80 to 100% | 80 to 100% |
| Cc1cc(-c2ccc(C(O)(c3cncnc3)C(C)(C)C)nc2)ccc1OC(F)(F)F (stereo not drawn) [Compound 116] | 60 to 79% | 80 to 100% | 80 to 100% | 80 to 100% | 60 to 79% |
| Cc1cc(OC(F)(F)F)ccc1-c1ccc(C(O)(c2cncnc2)C(C)(C)C)nc1 (stereo not drawn) [Compound 117] | 80 to 100% | 80 to 100% | 80 to 100% | 80 to 100% | 80 to 100% |
| Cc1ncncc1C(O)(c1ccc(-c2ccc(OC(F)(F)F)cc2)cn1)C(C)(C)C (stereo not drawn) [Compound 118] | 80 to 100% | 80 to 100% | 80 to 100% | 80 to 100% | 80 to 100% |
| CC(C)(C)C(O)(c1cncnc1)c1ccc(-c2ccc(OCC(F)(F)F)cc2)cn1 (stereo not drawn) [Compound 120] | 80 to 100% | 80 to 100% | 80 to 100% | 80 to 100% | 60 to 79% |
